The test deals with Malassezia restricta clinical isolate (R-4). As to the kind of experiment: Treatment effect on guinea pig seborrheic dermatitis model. The format is in vivo. The note with it: 1% luliconazole cream, 0.1 mL/inoculation site/day for 3 days, compared with 2% ketoconazole cream. As to the method:
Efficacy Evaluation Test 2. Treatment Effect on Guinea Pig Seborrheic Dermatitis Model
A guinea pig seborrheic dermatitis model was prepared using Malassezia restricta (Malassezia (M.) restricta) as a pathogenic fungus, and a skin symptom improving effect and a mycological treatment effect of 1% luliconazole cream were evaluated. As a comparative drug, 2% ketoconazole cream was used.
Luliconazole was prepared by the Applicant, and as 2% ketoconazole, a commercially available preparation was purchased and used.
As Malassezia restricta, a clinical isolate (R-4) isolated and identified by Teikyo University Institute of Medical Mycology was used. 2.5 mL of a modified Leeming (Leeming and Notman) liquid medium (m-LN. containing olive oil) was added per 1 g wet weight of the precultured strain for suspending therein to give an inoculum. […]
The hair on the back of the animal was shaved, and two inoculation sites (diameter 2 cm) were placed on either side of the back skin symmetrically. […] The skin symptoms were observed through the experiment from the inoculation starting day to the day of sacrifice and recorded by using the score. […] The skin section was successively observed from one end to the other end and the fungal content was evaluated by the criteria shown in the Table. The detection frequency of fungus in each section was determined. […]

Structures are written as SMILES.

From patent publication US8835479B2, “Agent for fungal dermatitis” (Nihon Nohyaku Co., Ltd., priority 2007, dated 2014) come the findings set out here.

Turning to `N#C/C(=C1/SC[C@@H](c2ccc(Cl)cc2Cl)S1)n1ccnc1` [Luliconazole, (−)-(E)-[(4R)-(2,4-dichlorophenyl)-1,3-dithioran-2-ylidene](1H-imidazol-1-yl)acetonitrile], the mycological treatment effect entry (PAS-stained skin sections, FIG. 2) was “showed mycological cure”. Further, the “skin symptom improving effect” value (FIG. 1) is listed as “improved skin symptom”.
